Data on 13 compounds can be found in patent US8916552B2, “Pharmaceutical combinations” (Astex Therapeutics Limited, priority 2006, dated 2014).

A short description of data set [1]: Hygroscopicity and rate of solubility of salt forms of compound of formula (1). Format: physicochemical.
The conditions of data set [2]: antitumour agent; cited from earlier work.
Another data set relates to HCT116 cell line. The data set is described as follows: Anti-proliferative activity, Alamar Blue assay. Format: cell-based. Conditions: Homo sapiens, HCT-116, 72 h, read-out: IC50 against the HCT116 cell line. The protocol:
The anti-proliferative activities of compounds for use in the combinations of the invention can be determined by measuring the ability of the compounds to inhibition of cell growth in a number of cell lines such as the human colon cancer cell line HCT116. […] The method is based on the ability of viable cells to reduce resazurin to its fluorescent product resorufin. […] The number of viable cells is determined by Alamar Blue assay as before. Cell lines can be obtained from the ECACC (European Collection of cell Cultures).
On the technique in general: Alamar Blue is a resazurin reagent that responds to reducing activity.

In data set [3] the target is T1, Human Hsp90α N-terminal domain (Homo sapiens, UniProt P07900).
T1 construct: purification of the Human Hsp90α N-terminal domain were performed according to published methods; made in house
The data set is described as follows: Isothermal titration calorimetry (ITC) binding to Hsp90. Conditions: pH 7.4. The protocol:
The ability of the compounds for use in the combinations of the invention to bind to human Hsp90 proteins was determined using isothermal titration calorimetry.
Isothermal titration calorimetry (ITC) experiments were performed with a VP-ITC titration calorimeter (Microcal Inc., Northampton, Mass., USA). […] All solutions were filtered and degassed prior to a titration being carried out. The enthalpy change resulting from each injection of ligand was obtained through integration of the calorimetric signal. Data were analysed using Origin 7.0 (Microcal Software Inc., Northampton, Mass.). Heats of dilution were estimated using the final injections of each individual titration and subtracted before data fitting. Different ITC experimental formats were employed in order to obtain compound dissociation constants (Kd's) over a wide range of affinities. […] In this type of experiment the stoichiometry parameter (N) was locked at 1 for data fitting.
Background: ITC needs no label: the signal is the heat of the interaction.

Data set [4] is described as follows: Solid-state stability of crystalline L-lactate forms of compound of formula (1). Format: physicochemical. The note with it: lactic acid salts of compound of formula (1). The text has this:
The term ‘stable’ or ‘stability’ as used herein includes chemical stability and solid state (physical) stability. The term ‘chemical stability’ means that the compound can be stored in an isolated form, or in the form of a formulation in which it is provided in admixture with for example, pharmaceutically acceptable carriers, diluents or adjuvants as described herein, under normal storage conditions, with little or no chemical degradation or decomposition’ for example for a period of six months or more, more usually twelve months or more, for example eighteen months or more. ‘Solid-state stability’ means the compound can be stored in an isolated solid form, or the form of a solid formulation in which it is provided in admixture with, for example, pharmaceutically acceptable carriers, diluents or adjuvants as described herein, under normal storage conditions, with little or no solid-state transformation (e.g. hydration, dehydration, solvatisation, desolvatisation, crystallisation, recrystallisation or solid-state phase transition).

The format of data set [5] is physicochemical. The text has this:
Samples for X-ray powder diffraction (XRPD) data collection were gently ground by marble mortar and loaded into a crystallographic capillary (from Hampton Research, Quartz or Glass Type 10, 0.4 or 0.7 mm diameter). Diffraction patterns were collected at room temperature using CuKα radiation (λ=1.5418 Å) from a Rigaku rotating anode RU3HR, Osmic blue confocal optics, ¼ c goniometer and a Rigaku HTC image plate detector. 2D Images were collected while spinning φ axis with a detector to crystal distance of 250 mm. Data collection was controlled by CrystalClear software and 2D images were converted to 1D plot (2θ vs. Intensity) by Datasqueeze (intensity averaged over the azimuthal angle 0<χ<360° for 2θ range 3-30° in 0.02° steps). In house program AstexXRP was used for manipulation and visualisation of 1D XRPD patterns.
It is nominally a tri-hydrate because there are 3 crystal water positions in the asymmetric unit, but they are not 100% occupied at room temperature and laboratory humidity. A saturated solution of form FL1 in methanol:water 9:1 was prepared at room temperature. Slow precipitation with approximately 4 volumes of acetone gave form FL2 which is stable in air.
A saturated solution of form FL1 in THF was prepared at room temperature. Slow precipitation with approximately 4 volumes of heptane gave form FL3.

Another data set concerns PKC. The note with it: data published 2002; read-out: IC50, inhibition of PKC activity; cited from earlier work.
In the next data set the test system is PKA. Conditions: data published 2002; read-out: IC50, inhibition of PKA activity; cited from earlier work.
The subject of a further data set is PKG. Conditions: data published 2002; read-out: IC50, inhibition of PKG activity; cited from earlier work.
The next data set concerns OVCAR-3 tumour cells. Conditions: OVCAR-3 tumour cells in which PKB is amplified; concentrations of 50 and 100 microM; cited from earlier work.
For data set [6] the following is noted: mice; doses 10 times more than were needed for antitumour activity; cited from earlier work.
For data set [7], the system named is Acute Promyelocytic Leukemia (APL). Conditions: cited from earlier work.
The subject of data set [8] is P-glycoprotein-overexpressing subline of leukemic cell line CCRF-CEM. The note with it: P-glycoprotein-overexpressing subline of CCRF-CEM (Chou et al. 1998); cited from earlier work.
The conditions of data set [9]: clinical studies; cited from earlier work.

Counter-ions that a name gives are not always drawn. Like-named read-outs stand apart in the source and are kept apart here. A value given as a limit tells only on which side of the number the result lay.

On to `CC(C)c1cc(C(=O)N2Cc3ccc(CN4CCN(C)CC4)cc3C2)c(O)cc1O` [(2,4-dihydroxy-5-isopropyl-phenyl)-[5-(4-methyl-piperazin-1-ylmethyl)-1,3-dihydro-isoindol-2-yl]-methanone L-lactate salt], for which the hygroscopicity result in data set [1] is “non-hygroscopic”. Also, the rate of solubility result in data set [1] (compared with free base and other salts tested (hydrochloric acid, sulphuric acid)) is “better rate of solubility than the free base and other salts tested”.

In the case of `CCN[C@H]1CO[C@@H](O[C@H]2[C@H](O[C@H]3C#C/C=C\C#C[C@]4(O)CC(=O)C(NC(=O)OC)=C3/C4=C\CSSSC)O[C@H](C)[C@@H](NO[C@H]3C[C@H](O)[C@H](SC(=O)c4c(C)c(I)c(O[C@@H]5O[C@@H](C)[C@H](O)[C@@H](OC)[C@H]5O)c(OC)c4OC)[C@@H](C)O3)[C@@H]2O)C[C@@H]1OC` [Calicheamicin], the “potency relative to adriamycin” value in data set [2] was “over 1,000 times”.

Take `CC(C)c1cc(C(=O)N2Cc3ccccc3C2)c(O)cc1O` [Example 5, (1,3-Dihydro-isoindol-2-yl)-(2,4-dihydroxy-5-isopropyl-phenyl)-methanone]: the IC50 (usually the concentration needed to halve the response being measured) in the data set on HCT116 cell line was less than 1 µM.

In the case of `CC(C)c1cc(C(=O)N2Cc3ccc(C(=O)N4CCNCC4)cc3C2)c(O)cc1O` [Example 54, (2,4-dihydroxy-5-isopropyl-phenyl)-[5-(piperazine-1-carbonyl)-1,3-dihydro-isoindol-2-yl]-methanone hydrochloride], the IC50 in the data set with HCT116 cell line was less than 1 µM.

As to `CC(C)c1cc(C(=O)N2Cc3ccc(CN4CCN(C)CC4)cc3C2)c(O)cc1O` [Example 55, (2,4-dihydroxy-5-isopropyl-phenyl)-[5-(4-methyl-piperazin-1-ylmethyl)-1,3-dihydro-isoindol-2-yl]-methanone], in data set [3], the Kd (in general, the constant that tells how readily two partners part at equilibrium) is less than 0.1 µM.

As for `CC(C)c1cc(C(=O)N2Cc3ccc(CN4CCN(C)CC4)cc3C2)c(O)cc1O` [FL1, (2,4-dihydroxy-5-isopropyl-phenyl)-[5-(4-methyl-piperazin-1-ylmethyl)-1,3-dihydro-isoindol-2-yl]-methanoneL-lactate], the “stability of crystalline form” value in data set [4] was “stable”. Also, in data set [5], the “stability of crystal form at 40° C. and 75% RH” value was “stable in air and at 40 °C and 75% RH for at least one month”; the “stability of crystal form in air” value is on record as “stable in air”.

On to `CC(C)c1cc(C(=O)N2Cc3ccc(CN4CCN(C)CC4)cc3C2)c(O)cc1O` [FL2, (2,4-dihydroxy-5-isopropyl-phenyl)-[5-(4-methyl-piperazin-1-ylmethyl)-1,3-dihydro-isoindol-2-yl]-methanoneL-lactate], for which the “stability of crystalline form” value in data set [4] is on record as “stable”. Moreover, in [5], the “stability of crystal form in air” value is “stable in air”.

For `CC(C)c1cc(C(=O)N2Cc3ccc(CN4CCN(C)CC4)cc3C2)c(O)cc1O` [FL3, (2,4-dihydroxy-5-isopropyl-phenyl)-[5-(4-methyl-piperazin-1-ylmethyl)-1,3-dihydro-isoindol-2-yl]-methanoneL-lactate], the “stability of crystalline form” value in data set [4] is recorded as “unstable”. Moreover, the “stability of crystal form in air” value in data set [5] (2 days) is given as “transforms in air into form FL1”.

In the case of `O=S(=O)(NCCNCC=C(c1ccccc1)c1ccccc1)c1cccc2cnccc12` [NL-71-101], the half-inhibitory concentration (IC50) with PKC is 104 µM; in the data set on PKA, 9 µM; with PKG, 36 µM. In addition, in the data set with OVCAR-3 tumour cells, the induction of apoptosis entry is listed as “induced apoptosis”.

For `CCOC(=O)c1ccc2[nH]c3c(OC)c4[nH]c5ccc(C(=O)OCC)cc5c4cc3c2c1` [SR-13668], the “adverse effects in vivo” value in data set [6] is listed as “no adverse effects”.

`CC1=C(/C=C/C(C)=C/C=C/C(C)=C/C(=O)O)C(C)(C)CCC1` [Tretinoin, all-trans retinoic acid]: in [7], the “remissions induced in APL patients” value is given as 64-100%.

For `C/C1=C/C[C@@H](/C(C)=C/c2csc(C)n2)OC(=O)C[C@H](O)C(C)(C)C(=O)[C@H](C)[C@@H](O)[C@@H](C)CCC1` [desoxyepothilone B], in data set [8], the half-maximal inhibitory concentration (IC50) is 0.017 µM.

Take Perifosine [KRX-0401]: the half-life (commonly the time in which the quantity being followed falls by half) in data set [9] is approximately 100 h.
